Inconclusive results and toxic doses are left out. Rule as the data show it: active = T/C of 150% or more; inactive = T/C below 125%.
Test system: L1210 leukemia ip in BDF1 mice, survival T/C
Assay: NCI In Vivo Anticancer Drug Screen. Data for tumor model L1210 Leukemia (intraperitoneal) in B6D2F1 (BDF1) mice
Settings: endpoint: mean survival time, higher = longer survival
Method in brief: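 Mice bearing the transplanted tumor received compound or vehicle. Survival of the treated group was divided by that of the vehicle-treated control group to give the ratio.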

[1] = dose: 100.0 mg/kg/injection, schedule: Q01DX009 (ip), vehicle: saline with Tween-80
[2] = dose: 200.0 mg/kg/injection, schedule: Q01DX009 (ip), vehicle: saline with Tween-80
[3] = dose: 400.0 mg/kg/injection, schedule: Q01DX009 (ip), vehicle: saline with Tween-80
[4] = dose: 100.0 mg/kg/injection, schedule: Q01DX009 (ip), vehicle: Klucel (hydroxypropylcellulose) (HPC)
[5] = dose: 100.0 mg/kg/injection, schedule: Q04DX003 (ip), vehicle: Klucel (hydroxypropylcellulose) (HPC)
[6] = dose: 200.0 mg/kg/injection, schedule: Q01DX009 (ip), vehicle: Klucel (hydroxypropylcellulose) (HPC)
[7] = dose: 200.0 mg/kg/injection, schedule: Q04DX003 (ip), vehicle: Klucel (hydroxypropylcellulose) (HPC)
[8] = dose: 400.0 mg/kg/injection, schedule: Q01DX009 (ip), vehicle: Klucel (hydroxypropylcellulose) (HPC)
[9] = dose: 400.0 mg/kg/injection, schedule: Q04DX003 (ip), vehicle: Klucel (hydroxypropylcellulose) (HPC)
[10] = dose: 100.0 mg/kg/injection, schedule: Q01DX009 (ip), vehicle: saline
[11] = dose: 100.0 mg/kg/injection, schedule: Q04DX003 (ip), vehicle: saline with Tween-80
[12] = dose: 200.0 mg/kg/injection, schedule: Q04DX003 (ip), vehicle: saline with Tween-80
[13] = dose: 400.0 mg/kg/injection, schedule: Q04DX003 (ip), vehicle: saline with Tween-80
[14] = dose: 200.0 mg/kg/injection, schedule: Q01DX009 (ip), vehicle: saline
[15] = dose: 400.0 mg/kg/injection, schedule: Q01DX009 (ip), vehicle: saline
[16] = dose: 75.0 mg/kg/injection, schedule: Q01DX001 (ip), vehicle: other
[17] = dose: 100.0 mg/kg/injection, schedule: Q04DX003 (ip), vehicle: saline
[18] = dose: 150.0 mg/kg/injection, schedule: Q01DX001 (ip), vehicle: other
[19] = dose: 200.0 mg/kg/injection, schedule: Q04DX003 (ip), vehicle: saline
[20] = dose: 300.0 mg/kg/injection, schedule: Q01DX001 (ip), vehicle: other
[21] = dose: 400.0 mg/kg/injection, schedule: Q04DX003 (ip), vehicle: saline
[22] = dose: 100.0 mg/kg/injection, schedule: Q01DX001 (ip), vehicle: saline

Measured: T/C

CCOC(=O)C1C(CCC#N)C(=O)CCC1(C#N)c1ccccc1 (stereo not drawn)
inactive: dose: 100.0 mg/kg/injection, schedule: Q04DX003 (ip), vehicle: acetone 98 % of control | dose: 200.0 mg/kg/injection, schedule: Q04DX003 (ip), vehicle: acetone 95 % of control | dose: 400.0 mg/kg/injection, schedule: Q04DX003 (ip), vehicle: acetone 98 % of control

CN(C)Cc1cc(C(C)(C)C)cc(C2CCCCC2)c1O
inactive: [1] 100 % of control | [2] 94 % of control | [3] 107 % of control

Cc1ccc(SSc2ccc(C)cc2[N+](=O)[O-])c([N+](=O)[O-])c1
inactive: [4] 92 % of control | [5] 97 % of control | [6] 91 % of control | [7] 90 % of control | [8] 90 % of control | [9] 94 % of control

Cc1ccc(C)c(C(C)NC(=O)NCCCl)c1 (stereo not drawn)
inactive: [5] 91 % of control | [7] 88 % of control | [9] 96 % of control

C=C(Br)C(C)N (stereo not drawn)
inactive: [10] 104 % of control

COC(=O)CCNc1ccccc1
inactive: [1] 108 % of control | [2] 100 % of control | [3] 102 % of control

C1=CC2OC3CCCCC3C2c2ccccc21 (stereo not drawn)
inactive: dose: 100.0 mg/kg/injection, schedule: Q01DX001 (ip), vehicle: carboxymethylcellulose (CMC) 95 % of control | dose: 200.0 mg/kg/injection, schedule: Q01DX001 (ip), vehicle: carboxymethylcellulose (CMC) 95 % of control | dose: 400.0 mg/kg/injection, schedule: Q01DX001 (ip), vehicle: carboxymethylcellulose (CMC) 98 % of control

Cc1nc(Br)c([N+](=O)[O-])[nH]1
inactive: dose: 100.0 mg/kg/injection, schedule: Q01DX001 (ip), vehicle: saline with Tween-80 95 % of control | dose: 200.0 mg/kg/injection, schedule: Q01DX001 (ip), vehicle: saline with Tween-80 114 % of control | dose: 400.0 mg/kg/injection, schedule: Q01DX001 (ip), vehicle: saline with Tween-80 97 % of control

CCCCCCCCCCOc1ccc2ccccc2c1
inactive: [11] 100 % of control | [12] 94 % of control | [13] 91 % of control

O=c1ccnc(SCc2ccccc2Cl)[nH]1
inactive: dose: 100.0 mg/kg/injection, schedule: Q01DX Z (ip), vehicle: methylcellulose (MC) 91 % of control | dose: 200.0 mg/kg/injection, schedule: Q01DX Z (ip), vehicle: methylcellulose (MC) 91 % of control

C[C@]12CC[C@H](O)CC1=CC[C@@H]1[C@@H]2CC[C@]2(C)c3nc4ccccc4cc3C[C@@H]12
inactive: dose: 15.6 mg/kg/injection, schedule: Q01DX Z (sc), vehicle: steriod suspending solution 94 % of control | dose: 31.3 mg/kg/injection, schedule: Q01DX Z (sc), vehicle: steriod suspending solution 93 % of control | dose: 62.5 mg/kg/injection, schedule: Q01DX Z (sc), vehicle: steriod suspending solution 94 % of control | dose: 100.0 mg/kg/injection, schedule: Q01DX009 (sc), vehicle: steriod suspending solution 94 % of control | dose: 100.0 mg/kg/injection, schedule: Q04DX003 (ip), vehicle: steriod suspending solution 98 % of control | dose: 125.0 mg/kg/injection, schedule: Q01DX Z (sc), vehicle: steriod suspending solution 96 % of control | dose: 200.0 mg/kg/injection, schedule: Q01DX009 (sc), vehicle: steriod suspending solution 92 % of control | dose: 200.0 mg/kg/injection, schedule: Q04DX003 (ip), vehicle: steriod suspending solution 107 % of control | dose: 250.0 mg/kg/injection, schedule: Q01DX Z (sc), vehicle: steriod suspending solution 104 % of control | dose: 400.0 mg/kg/injection, schedule: Q01DX009 (sc), vehicle: steriod suspending solution 89 % of control | dose: 400.0 mg/kg/injection, schedule: Q04DX003 (ip), vehicle: steriod suspending solution 106 % of control | dose: 500.0 mg/kg/injection, schedule: Q01DX Z (sc), vehicle: steriod suspending solution 94 % of control

COc1cc(-c2cc(=O)c3c(O)cc(O)c(C4OC(CO)C(O)C(O)C4O)c3o2)ccc1O (stereo not drawn)
inactive: [10] 108 % of control | [14] 108 % of control | [15] 103 % of control

O=C1C2C3CC4C2C(=O)C2C1C3C42 (stereo not drawn)
inactive: [16] 101 % of control | [10] 97 % of control | [17] 94 % of control | [18] 101 % of control | [14] 94 % of control | [19] 104 % of control | [20] 93 % of control | [15] 104 % of control | [21] 91 % of control

O=C(CNC(=O)Nc1ccc(Cl)c(Cl)c1)NNC(=O)Nc1ccc(Cl)c([N+](=O)[O-])c1
inactive: [4] 97 % of control | [6] 97 % of control | [8] 93 % of control

CN(N=Nc1ccc(C(N)=O)cc1)C1CCCCC1
inactive: dose: 100.0 mg/kg/injection, schedule: Q01DX001 (ip), vehicle: other 91 % of control | dose: 200.0 mg/kg/injection, schedule: Q01DX001 (ip), vehicle: other 107 % of control

CN(C(=O)Sc1ccc([N+](=O)[O-])cc1)c1ccccc1
inactive: [11] 91 % of control | [12] 89 % of control | [13] 91 % of control

CCNC(=O)C1C2CCC(C2)C1C(=O)NCC (stereo not drawn)
inactive: [17] 104 % of control | [19] 87 % of control | [21] 96 % of control

Cc1c(Cl)c(=O)[nH]c2ccccc12
inactive: dose: 50.0 mg/kg/injection, schedule: Q01DX009 (ip), vehicle: Klucel (hydroxypropylcellulose) (HPC) 101 % of control | [4] 97 % of control | [6] 106 % of control

O=C(O)CC(NC(=O)OCc1ccccc1)C(=O)OCc1ccccc1 (stereo not drawn)
inactive: [1] 107 % of control | [11] 104 % of control | [2] 93 % of control | [12] 107 % of control | [3] 91 % of control | [13] 96 % of control

NC(=O)CCCN1CCCC1=O
inactive: [10] 100 % of control | [17] 100 % of control | [14] 111 % of control | [19] 101 % of control | [15] 110 % of control | [21] 97 % of control

COc1ccc(C(=O)/C=C/c2cccc(OC)c2O)cc1
inactive: dose: 75.0 mg/kg/injection, schedule: Q04DX003 (ip), vehicle: saline 101 % of control | dose: 150.0 mg/kg/injection, schedule: Q04DX003 (ip), vehicle: saline 91 % of control | dose: 300.0 mg/kg/injection, schedule: Q04DX003 (ip), vehicle: saline 101 % of control

FC(F)(F)c1cccc(N2CCN(c3c4c(nc5ccccc35)CCCCC4)CC2)c1
inactive: [22] 93 % of control | dose: 200.0 mg/kg/injection, schedule: Q01DX001 (ip), vehicle: saline 95 % of control | dose: 400.0 mg/kg/injection, schedule: Q01DX001 (ip), vehicle: saline 95 % of control

COc1ccccc1-n1c(O)c(N=Nc2ccc(C)cc2)c(=O)n(-c2ccccc2)c1=S
inactive: dose: 100.0 mg/kg/injection, schedule: Q01DX001 (ip), vehicle: Klucel (hydroxypropylcellulose) (HPC) 103 % of control | dose: 200.0 mg/kg/injection, schedule: Q01DX001 (ip), vehicle: Klucel (hydroxypropylcellulose) (HPC) 97 % of control | dose: 400.0 mg/kg/injection, schedule: Q01DX001 (ip), vehicle: Klucel (hydroxypropylcellulose) (HPC) 91 % of control

O=C1OCCOC1=O
inactive: [16] 90 % of control | [18] 95 % of control | [20] 95 % of control

O=c1oc2ccc([N+](=O)[O-])cc2o1
inactive: dose: 75.0 mg/kg/injection, schedule: Q01DX001 (ip), vehicle: acetone 108 % of control

C(=C\CN(Cc1ccccc1)Cc1ccccc1)/CN(Cc1ccccc1)Cc1ccccc1
inactive: [5] 90 % of control | [7] 87 % of control | [9] 87 % of control

OCC[N-]CCCN=Cc1ccccc1O.OCC[N-]CCCN=Cc1ccccc1O.[Co+2]
inactive: dose: 50.0 mg/kg/injection, schedule: Q01DX001 (ip), vehicle: saline 96 % of control | [22] 100 % of control

O=C(CCN1CC=C(c2ccccc2)CC1)c1ccc(Oc2ccccc2)cc1
inactive: dose: 50.0 mg/kg/injection, schedule: Q01DX009 (ip), vehicle: saline with Tween-80 100 % of control | [1] 96 % of control | [11] 96 % of control | [2] 105 % of control | [12] 94 % of control
